A value given as a limit tells only on which side of the number the result lay.

In general, CC50 refers to the concentration giving 50% cytotoxicity. What is called EC50 is the concentration at which the effect is half-maximal.

Data set [1] is described as follows: Cytotoxicity against human MT4 cells assessed as reduction in cell viability by MTT assay. The data set is classed as toxicity, cell-based.
Data set [2] is described as follows: Selectivity index, ratio of CC50 for human MT4 cells to EC50 for wild-type HIV-1 IIIB infected in human MT4 cells. The data set is classed as toxicity, cell-based. The following applies: read-out: Ratio CC50/EC50.
Data set [3] relates to Human immunodeficiency virus 1. As to the kind of experiment: Antiviral activity against wild-type HIV-1 IIIB infected in human MT4 cells assessed as protection against virus-induced cytopathic effect by MTT assay. The data set is classed as functional, organism-based. The following applies: Human immunodeficiency virus 1, IIIB.
Data set [4] concerns Human immunodeficiency virus 1. In words: Antiviral activity against HIV-1 harboring RT E138K mutant infected in human MT4 cells assessed as protection against virus-induced cytopathic effect by MTT assay. Type of data set: functional, organism-based. The conditions noted are these: Human immunodeficiency virus 1, MT4. A general note: Damage to the host cells serves as the signal in cytopathic effect assays.

The subject of data set [5] is Human immunodeficiency virus 1. As to the kind of experiment: Antiviral activity against HIV-1 harboring RT RES056 mutant infected in human MT4 cells assessed as protection against virus-induced cytopathic effect by MTT assay. Type of data set: functional, organism-based. The conditions noted are these: Human immunodeficiency virus 1, MT4.
The test system of data set [6] is Human immunodeficiency virus 1. As to the kind of experiment: Antiviral activity against HIV-1 harboring RT Y188L mutant infected in human MT4 cells assessed as protection against virus-induced cytopathic effect by MTT assay. Type of data set: functional, organism-based. The following applies: Human immunodeficiency virus 1, MT4.
Data set [7] has as its system Human immunodeficiency virus 1. As to the kind of experiment: Antiviral activity against HIV-1 harboring RT F227L/V106A mutant infected in human MT4 cells assessed as protection against virus-induced cytopathic effect by MTT assay. Type of data set: functional, organism-based. The following applies: Human immunodeficiency virus 1, MT4.
Data set [8] concerns Human immunodeficiency virus 1. In words: Antiviral activity against HIV-1 harboring RT L100I mutant infected in human MT4 cells assessed as protection against virus-induced cytopathic effect by MTT assay. The data set is classed as functional, organism-based. The conditions noted are these: Human immunodeficiency virus 1, MT4.

Regarding `Cc1cc(C#N)cc(C)c1Oc1cc(-c2cccs2)nc(NC2CCN(Cc3ccc(S(N)(=O)=O)cc3)CC2)n1`, the CC50 in data set [1] is 24600 nM. Further, the selectivity ratio in data set [2] came out at 2320. For the same molecule, the EC50 in data set [3] stood at 10.6 nM.
Turning to `Cc1cc(C#N)cc(C)c1Oc1cc(-c2ccccc2)nc(NC2CCN(Cc3ccc(S(N)(=O)=O)cc3)CC2)n1`, in data set [1], the CC50 stood at 18000 nM. Besides, in data set [2], the selectivity ratio stood at 3000. Further, the EC50 in data set [3] worked out at 6.01 nM.
`Cc1cc(C#N)cc(C)c1Oc1nc(Nc2ccc(C#N)cc2)nc(N)c1Br` [ETRAVIRINE]: the figures for the EC50 in data set [4], in data set [5] and in data set [6] were 14.9 nM, 32.3 nM and 30.5 nM, respectively. Further, the CC50 in data set [1] is > 4590 nM.
With `O=C1Nc2ccc(Cl)cc2[C@@](C#CC2CC2)(C(F)(F)F)O1` [EFAVIRENZ], the EC50 came out at 8.82 nM in data set [4]; 261 nM in data set [7]; 396 nM in data set [6]; 3.67 nM in data set [3]; 28.9 nM in data set [8]. Also, the CC50 in data set [1] was > 6340 nM.
Take `Cc1cc(C#N)cc(C)c1Oc1cc(-c2ccco2)nc(NC2CCN(Cc3ccc(C(N)=O)cc3)CC2)n1`: the CC50 in data set [1] turned out to be 24000 nM. Further, the selectivity ratio in data set [2] was found to be 1550. In addition, the EC50 in data set [3] is 15.5 nM.
The like results for `Cc1cc(C#N)cc(C)c1Oc1cc(-c2ccco2)nc(NC2CCN(Cc3ccc(S(C)(=O)=O)cc3)CC2)n1` were, in that order, 20700 nM, 3640 and 5.68 nM.
On to `Cc1cc(C#N)cc(C)c1Oc1cc(-c2cncnc2)nc(NC2CCN(Cc3ccc(S(C)(=O)=O)cc3)CC2)n1`, for which the CC50 in data set [1] is 108000 nM. Moreover, in data set [2], the selectivity ratio worked out at 16100. Further, the EC50 in data set [3] was determined as 6.72 nM.
Take `Cc1cc(C#N)cc(C)c1Oc1cc(-c2ccsc2)nc(NC2CCN(Cc3ccc(C(N)=O)cc3)CC2)n1`: the CC50 in data set [1] amounted to 23700 nM. Moreover, the selectivity ratio in data set [2] worked out at 4680. For the same molecule, the EC50 in data set [3] is 5.06 nM.
On to `Cc1cc(C#N)cc(C)c1Oc1cc(-c2ccsc2)nc(NC2CCN(Cc3ccc(S(C)(=O)=O)cc3)CC2)n1`, for which the CC50 in data set [1] was > 219000 nM. The selectivity ratio in data set [2] is > 1310. In addition, in data set [3], the EC50 worked out at 167 nM.
`Cc1cc(C#N)cc(C)c1Oc1cc(-c2ccoc2)nc(NC2CCN(Cc3ccc(S(C)(=O)=O)cc3)CC2)n1`: the CC50 in data set [1] was determined as 22600 nM. Also, the selectivity ratio in data set [2] worked out at 4060. The EC50 in data set [3] worked out at 5.56 nM.
As for `Cc1cc(C#N)cc(C)c1Oc1cc(-c2ccccc2)nc(NC2CCN(Cc3ccc(C(N)=O)cc3)CC2)n1`, the cytotoxic concentration (CC50) in data set [1] is 23100 nM. Further, the selectivity ratio in data set [2] came out at 3710. Moreover, the EC50 in data set [3] worked out at 6.23 nM.
Consider `Cc1cc(C#N)cc(C)c1Oc1cc(-c2ccoc2)nc(NC2CCN(Cc3ccc(C(N)=O)cc3)CC2)n1`, for which the CC50 in data set [1] turned out to be 19800 nM. Moreover, the selectivity ratio in data set [2] stood at 3610. In addition, in data set [3], the EC50 was determined as 5.49 nM.
For the molecule `Cc1cc(C#N)cc(C)c1Oc1cc(-c2ccco2)nc(NC2CCN(Cc3ccc(S(N)(=O)=O)cc3)CC2)n1`, the CC50 in data set [1] came to 22800 nM. For the same molecule, the selectivity ratio in data set [2] came out at 2900. Moreover, the EC50 in data set [3] was 7.85 nM.
The like results for `Cc1cc(C#N)cc(C)c1Oc1cc(-c2ccoc2)nc(NC2CCN(Cc3ccc(S(N)(=O)=O)cc3)CC2)n1` were, in that order, 29500 nM, 3150 and 9.36 nM.
`Cc1cc(C#N)cc(C)c1Oc1cc(-c2cccs2)nc(NC2CCN(Cc3ccc(S(C)(=O)=O)cc3)CC2)n1`: the CC50 in data set [1] turned out to be 16600 nM. The selectivity ratio in data set [2] is 3000. Further, the EC50 in data set [3] worked out at 5.53 nM.
For the molecule `Cc1cc(C#N)cc(C)c1Oc1cc(-c2ccncc2)nc(NC2CCN(Cc3ccc(C(N)=O)cc3)CC2)n1`, in data set [1], the cytotoxic concentration (CC50) is 21200 nM. Also, the selectivity ratio in data set [2] was 2870. Also, the EC50 in data set [3] is 7.39 nM.
